Test results taken from patent EP0421419A2, “Tocotrienols in the treatment of hypercholesterolemia, hyperlipidemia and thromboembolic disorders” (Bristol-Myers Squibb Company, priority 1989, dated 1991).

What was measured:
[1] = test system: Lipid Metabolism; experiment: Lipid metabolism in genetically hypercholesterolemic swine fed compound in diet; format: in vivo; settings: 4 weeks; for Serum Cholesterol: 75 ppm in corn-soybean meal control diet, control 406.7(±12.8); for HDL-Cholesterol [% of Control] / LDL-Cholesterol [% of Control] / Serum Cholesterol [% of Control] / Serum Triglycerides [% of Control] / HDL/LDL / HDL-Cholesterol / Serum Triglycerides / LDL-Cholesterol: 75 ppm in diet; for HDL/LDL: control 0.078; for HDL-Cholesterol: control 28.8(±1.1); for Serum Triglycerides: control 67.9(±2.8); for LDL-Cholesterol: control 367.1(±15.7)
From the text: Genetically hypercholesterolemic swine (3 per group) were fed for four weeks on either a standard corn-soybean-based control diet or an experimental diet. The experimental diet consisted of the standard mix containing either gamma-tocotrienol or delta-tocotrienol at 75 ppm. The same protocol used for the chicken study was used for the swine group, except HMG-CoA reductase levels were not determined in this case. […] The HDL/LDL atherogenic index as before improved dramatically with drug treatment (Table 7).

[2] = test system: HMG-CoA reductase; experiment: HepG2 cell culture model, HMG-CoA reductase suppression assay; format: cell-based, human; settings: 10 µM, about 4 hours, HepG2 cells
Description: HMG-CoA reductase suppression in HepG2 cells was conducted by growing cells in RPMT-1640 plus 10% FBS on 100 mm plates, and when cells reached approximately 75% confluency, inducing with LDS (as described above) for about 16 hours prior to assays. Compounds were added using dimethylsulfoxide vehicle (0.5% v/v, final) and after about 4 hours of incubation at 37°, cells were harvested by scraping. Cell pellets were rinsed and lysed by sonication in 1.7 ml cold 50 mM imidazole-HCL, pH 7.2, 50 mM NaCl, 10 mM EDTA, 10 mM EGTA, 5 mM DTT, and 40µM leupeptin). Lysates were centriguged at 150 x g and the supernatant was centrifuged at 100,000 x g in a Beckman airfuge to isolate the post-nuclear total membrane fraction. The membranes were resuspended in 50 mM imidazole-HCl, pH 7.2, 250 mM NaCl, 5 mM DTT, and 20µM leupeptin and used for the assay of HMG-CoA reductase activity by the radiochemical procedure as described previously by Parker et al., J. Biol. Chem., 264: 4877-4887, (1989). Values were normalized for protein content by the Lowry method as cited previously (ibid). HMG-CoA reductase percent suppression was calculated as the decrease in specific activity of HMG-CoA reductase for treated cells vs. controls receiving vehicle. Averages of duplicate cell determinations assayed in duplicate were taken.
(§1) The human hepatoma HepG2 cell culture model was employed to compare the intrinsic activities of the tocotrienols. HepG2 cells were incubated with the indicated compounds for about 4 hours at 10 µM. Cholestrol synthesis was assayed by 14C-acetate incorporation and HMG-CoA reductase suppression was assayed in the isolated microsomal fraction. Cholesterol synthesis inhibition was assayed by 14C-acetate incorporation after preincubation of HepG2 cells with the compounds for about 2 hours or about 4 hours (Example IV). […] As the data in Figure 1 indicate, gamma-tocotrienol has an even greater relative potency compared to alpha-tocotrienol in the HepG2 cell model than in rat hepatocytes. The IC50s from these studies are given in Table 3, in which it can be seen that the intrinsic potency of gamma-tocotrienol is over 30-fold greater than that of alpha-tocotrienol.
The mechanism of cholesterol synthesis inhibition by tocotrienols involves down regulation of the limiting enzyme of sterol synthesis, HMG-CoA reductase. […] The suppression of HMG-CoA reductase protein expression by gamma-tocotrienol and delta-tocotrienol in HepG2 cells and in rat liver has been confirmed by immunoassy using the Western blot technique (data not shown).

[3] = test system: Cholesterol Synthesis in HepG2 Cells; experiment: HepG2 cell culture model, 14C-acetate incorporation assay; format: cell-based, human; settings: Homo sapiens, HepG2; 10 µM, about 4 hours; read-out: % Inhibition 14C-Ac
Description: HepG2 cells obtained from the American Type Culture Collection were routinely passaged in RPMI-1640 plus 10% fetal bovine serum (FBS) and were subcultured into 35 mm diameter wells for experiments. […] The LDS medium supplement was prepared according to Cham et al., J. Lipid Res., 17: 176-181, (1976). After about 16 hours in LDS containing media, test compounds were added in dimetthylsulfoxide vehicle (0.5% v/v final conc.) for the period of time indicated in the data (generally 4 hours). Cholesterol synthesis was then directly determined by the incorporation of 2-14C-acetate (1.8-3.0 mCi/mmol) into digitonin-precipitable sterols essentially as described for the rat hepatocyte methol above. Greater than 97% of the radiolabelled sterol isolated by this procedure was cholesterol as judged by HPLC. Percent inhibition was calculated from the average of duplicates or triplicates vs. controls receiving vehicle.
as §1

[4] = test system: Lipid Metabolism; experiment: Lipid metabolism in normocholesterolemic chickens fed compound in diet; format: in vivo; settings: 20 ppm in corn control diet, 4 weeks; for HDL/LDL: control 1.413; for LDL-Cholesterol: control 76.0(±5.3); for HDL-Cholesterol: control 107.4(±7.0); for Serum Triglycerides: control 115.2(±13); for Serum Cholesterol: control 197.0(±5.2)
Description: Natural gamma-tocotrienol and delta-tocotrienol were evaluated for their hypocholesterolemic action in normocholesterolemic chickens and genetically hypercholesterolemic swine. Newborn male chicks (10 for each group) were raised on a standard corn-soybean-based control diet for two weeks and then were switched to either control or experimental diets for four weeks. Drug treatment consisted of the addition of gamma-tocotrienol or delta-tocotrienol to the corn-soybean-based diet at a concentration of 20 ppm. At the end of the feeding period, all the birds were fasted (about 36 hours) and refed (about 48 hours) to induce cholesterolgenic emzymes prior to sacrifice. The specific activity of HMG-CoA reductase, total serum cholesterol levels, HDL/LDL cholesterol pools, and serum triglyceride levels were examined (Table 5).
Similarly, synthetic gamma-tocotrienol was administered to male chicks at 50 ppm using the same protocol except HMG-CoA reductase levels were not determined.

Row | SMILES | Serum Cholesterol [1] | HDL-Cholesterol [% of Control] [1] | LDL-Cholesterol [% of Control] [1] | Serum Cholesterol [% of Control] [1] | Serum Triglycerides [% of Control] [1] | HDL/LDL [1] | HDL-Cholesterol [1] | Serum Triglycerides [1] | LDL-Cholesterol [1] | % Suppression HMG-CoA Reductase [2] | inhibition at 10 µM [3] | HDL-Cholesterol [% of Control] [4] | LDL-Cholesterol [% of Control] [4] | Serum Cholesterol [% of Control] [4] | Serum Triglycerides [% of Control] [4] | HDL/LDL [4] | LDL-Cholesterol [4] | HDL-Cholesterol [4] | Serum Triglycerides [4] | Serum Cholesterol [4]
1 | CC(C)=CCC/C(C)=C/CC/C(C)=C/CC[C@]1(C)CCc2cc(O)c(C)c(C)c2O1 [d-γ-tocotrienol] | 212.8(±9.0) mg/dl | 104.5% | 46.0% | 51.3% | 76.4% | 0.172 | 29.8(±2.9) mg/dl | 50.9(±3.1) mg/dl | 172.8(±7.1) mg/dl | 64% | 78% | 95.3% | 56.7% | 76.4% | 82.8% | 1.669 | 43.1(±8.3) mg/dl | 102.3(±4.5) mg/dl | 95.4(±5.9) mg/dl | 150.5(±4.2) mg/dl
2 | CC(C)=CCC/C(C)=C/CC/C(C)=C/CC[C@]1(C)CCc2cc(O)cc(C)c2O1 [d-δ-tocotrienol] | 214.9(±18.6 mg/dl | 105.3% | 44.8% | 47.7% | 70.3% | 0.189 | 34.4(±1.9) mg/dl | 44.4(±1.3) mg/dl | 182.2(±8.2) mg/dl | 65% | 79% | 91.9% | 53.7% | 71.5% | 77.0% | 2.419 | 40.8(±6.6) mg/dl | 98.7(±8.4) mg/dl | 88.7(±7.3) mg/dl | 140.9(±3.1) mg/dl
